In paper PMC3590142 (PLoS ONE, 2013):

B1: RFT-1 (rft-1, Y47D7A.16) (Caenorhabditis elegans) (protein)
chain: MKTFLFTFCLVAIFGSSSWIGTNSVWMELSLLTAKLPEGWNLPSYLSAIVQIACLGPLIYSIIHKGIKMTIPTVPLIFIFMVLACICQLGLCFFWDDTGYIFGAIRSWPLYLLLFGLAIVDAISSVLFLPFMAQFHPSFLNAYFVGMGLSALIPSLLSLIQGTSNYWCDDNKTPHYYPPRFSVSMFFLINFFFTCAAVAAFLVLYKIGAHKNSSQVEPEPKHSIQIIQGDSTTDVNEVNTESSFQETSSIPDSSSATGARLAFLLLTTALVNAQMNGIVTSVQSYATLVYSQNTYHYAVTLSNVISPLASYLQFFVKIRSLPILAFLTLCSSLTTAVIIYLAALSPNWIFNSETAGTIISIASSLIAAGLHSYLRVMFAALLREGNQKESRLFWCGAFIQIGSFTGSAIMFPLVNVWKLFHSAPSCR

Assays:
RFT-2 (rft-2, Y47D7A.14) = biological target: T1, RFT-2 (rft-2, Y47D7A.14) (Caenorhabditis elegans, UniProt G4SDH4); test: [3H]riboflavin uptake, transfected ARPE-19 cells, empty-vector uptake subtracted; conditions: 14 nM [3H]riboflavin, pH 5.5, 37°C, 5 min, Krebs-Ringer buffer; labelled compound
T1 construct: full-length cDNA in pCI-neo; untagged; transient expression in human ARPE-19 cells
T1 sequence (G4SDH4 1-476): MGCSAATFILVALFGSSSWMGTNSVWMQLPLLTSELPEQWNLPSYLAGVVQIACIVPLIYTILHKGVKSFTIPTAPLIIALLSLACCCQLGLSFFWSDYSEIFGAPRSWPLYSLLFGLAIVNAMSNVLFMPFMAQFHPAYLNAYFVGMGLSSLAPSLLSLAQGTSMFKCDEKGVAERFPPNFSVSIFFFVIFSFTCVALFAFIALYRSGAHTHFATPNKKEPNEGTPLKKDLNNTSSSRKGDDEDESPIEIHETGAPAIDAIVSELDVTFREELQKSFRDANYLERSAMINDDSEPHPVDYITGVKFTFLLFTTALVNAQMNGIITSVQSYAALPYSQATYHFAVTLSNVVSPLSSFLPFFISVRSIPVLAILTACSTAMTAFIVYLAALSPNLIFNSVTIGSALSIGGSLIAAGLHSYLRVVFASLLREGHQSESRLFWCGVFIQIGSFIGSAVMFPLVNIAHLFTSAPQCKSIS

RFT-1 (rft-1, Y47D7A.16) = biological target: T2, RFT-1 (rft-1, Y47D7A.16) (Caenorhabditis elegans, UniProt Q3LFN0); test: inhibition of [3H]riboflavin uptake, transfected ARPE-19 cells, empty-vector uptake subtracted; format: cell-based; conditions: competition with [3H]riboflavin; 37°C, 5 min, Krebs-Ringer buffer
T2 construct: full-length 1,284 nt cDNA with corrected 3' end (differs from the older gene model) in pCI-neo; untagged; transient expression in human ARPE-19 cells; 11 predicted TM domains
T2 sequence (Q3LFN0 1-427): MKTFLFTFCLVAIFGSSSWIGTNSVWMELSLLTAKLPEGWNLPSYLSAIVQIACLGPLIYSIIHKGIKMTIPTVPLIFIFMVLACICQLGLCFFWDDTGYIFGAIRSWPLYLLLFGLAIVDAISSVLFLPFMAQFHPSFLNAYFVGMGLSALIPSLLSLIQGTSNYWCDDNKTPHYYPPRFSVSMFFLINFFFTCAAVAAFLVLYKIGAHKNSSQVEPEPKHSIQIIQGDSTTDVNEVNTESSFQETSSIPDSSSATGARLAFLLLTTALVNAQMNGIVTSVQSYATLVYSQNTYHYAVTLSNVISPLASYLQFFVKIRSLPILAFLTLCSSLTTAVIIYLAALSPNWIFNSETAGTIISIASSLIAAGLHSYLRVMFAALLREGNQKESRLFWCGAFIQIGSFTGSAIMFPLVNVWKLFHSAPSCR

[1] = substrate: Cc1cc2nc3c(=O)[nH]c(=O)nc-3n(C[C@H](O)[C@H](O)[C@H](O)CO)c2cc1C; test: cells, lysate or membranes; conditions: 0.01–10 µM riboflavin, 37°C, 5 min, Krebs-Ringer buffer, labelled compound

Molecule	inhibition of [3H]riboflavin uptake, transfected ARPE-19 cells, empty-vector upt (RFT-1 (rft-1, Y47D7A.16))	further results
Cc1cc2nc3c(=O)[nH]c(=O)nc-3n(C[C@H](O)[C@H](O)[C@H](O)CO)c2cc1C [riboflavin]	–	[3H]riboflavin uptake, transfected ARPE-19 cells, empty-vector uptake subtracted (RFT-2 (rft-2, Y47D7A.14)): rft-2 transfected cells also had significantly higher riboflavin uptake compared to controls
Cc1cc2nc3c(=O)[nH]c(=O)nc-3n(C)c2cc1C [lumiflavin]	structural analogues lumichrome and lumiflavin significantly inhibited [^3H] riboflavin uptake	–
Cc1cc2nc3[nH]c(=O)[nH]c(=O)c3nc2cc1C [lumichrome]	structural analogues lumichrome and lumiflavin significantly inhibited [^3H] riboflavin uptake	–
B1	–	Km [1]: 1.4 ± 0.5 µM
